Molecules are shown by their SMILES.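 Where inhibition never reached the appropriate level, the endpoint shown equals the highest concentration tested. Otherwise, values were interpolated linearly from a five-concentration, 48-hour dose response in 96-well plates. Here, GI50 denotes the concentration required for 50% inhibition of growth.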 Calls of active or inactive are those of the source. Cut-off read from the data, not from the text of the source: active = GI50 up to about 1.1 µM and inactive = higher. A value given as a limit tells only on which side of the number the result lay.

Experimental findings from ChEMBL document CHEMBL1201862, “PubChem BioAssay data set” (2004) are described below.

Among the test systems are A498; ACHN; COLO 205; IGROV-1; LOX IMVI; M14; MDA-MB-231; MOLT-4; Malme-3M; NCI-H522; OVCAR-3; OVCAR-4; RXF 393; SF-268; SK-MEL-5; SN12C; SR; UACC-257; UO-31.
What all share (assay): NCI tumour cell line growth inhibition, 48 h

For the compound `O=C(CNC(=O)OCc1ccccc1)NCCCCC(NC(=O)OCc1ccccc1)C(=O)O` (stereo not given), the GI50 in the test on A498, in the test on ACHN, with COLO 205, with IGROV-1, in the test on LOX IMVI and in the test on M14 was > 100 µM (inactive) each time. The GI50 with MDA-MB-231, with MOLT-4, in the test with Malme-3M, with NCI-H522, in the test on OVCAR-3 and in the test with OVCAR-4 was > 100 µM (inactive) in each case. Also, the GI50 in the test with RXF 393, in the test with SF-268, with SK-MEL-5, with SN12C, in the test on SR and with UACC-257 was > 100 µM (inactive) in each case. For the same compound, the GI50 in the test with UO-31 is > 100 µM (inactive).

Regarding `N#CC(C#N)=Cc1c[nH]c(=O)[nH]c1=O`, the GI50 in the test with A498, with ACHN, in the test with COLO 205, in the test on IGROV-1, with LOX IMVI and in the test with M14 was > 100 µM (inactive) each time. The GI50 with MDA-MB-231 was > 100 µM (inactive); with MOLT-4, 43.1 µM (inactive); with Malme-3M, 6.35 µM (inactive); in the test on NCI-H522, 41 µM (inactive); in the test with OVCAR-3, > 100 µM (inactive); with OVCAR-4, > 100 µM (inactive). Further, the GI50 with RXF 393 is > 100 µM (inactive); in the test on SF-268 it was > 100 µM (inactive); in the test on SK-MEL-5 it was > 100 µM (inactive); with SN12C it was > 100 µM (inactive); with SR, 0.152 µM (active); in the test on UACC-257 it was > 100 µM (inactive). In addition, in the test on UO-31, the GI50 is > 100 µM (inactive).

`N/C(=N\c1ccc(Cl)cc1)NS(=O)(=O)c1c(C(F)(F)F)cccc1C(F)(F)F`: the GI50 in the test on A498 was 17.8 µM (inactive); with ACHN, 14.5 µM (inactive); in the test with COLO 205 it was 11.1 µM (inactive); in the test with IGROV-1, 16.6 µM (inactive); in the test on LOX IMVI it was 16.3 µM (inactive); with M14, 26.3 µM (inactive). Besides, the GI50 in the test on MDA-MB-231 was 22.2 µM (inactive); in the test with MOLT-4 it was > 100 µM (inactive); with Malme-3M it was 17.4 µM (inactive); with NCI-H522, 10.1 µM (inactive); in the test on OVCAR-3 it was 16.6 µM (inactive); in the test on OVCAR-4, 17.5 µM (inactive). Further, the GI50 in the test on RXF 393 is 45.8 µM (inactive); in the test with SF-268, 23.3 µM (inactive); in the test with SK-MEL-5 it was 17.5 µM (inactive); with SN12C it was 16.1 µM (inactive); with SR it was > 100 µM (inactive); in the test with UACC-257, 18.6 µM (inactive). Also, in the test on UO-31, the GI50 is 2.29 µM (inactive).

Take `O=c1[nH]nc(Cc2ccccc2)n1/N=C/c1cccnc1`: the GI50 in the test with A498, with ACHN, with COLO 205, in the test with IGROV-1, in the test with LOX IMVI and with M14 was > 100 µM (inactive) in each case. Also, the GI50 with MDA-MB-231, in the test with MOLT-4, in the test with Malme-3M, with NCI-H522, in the test with OVCAR-3 and in the test on OVCAR-4 was > 100 µM (inactive) in each case. The GI50 in the test on RXF 393, in the test with SF-268, in the test with SK-MEL-5, in the test with SN12C, with SR and in the test on UACC-257 was > 100 µM (inactive) each time. Further, the GI50 with UO-31 is 71.6 µM (inactive).

Regarding `O=C(/C=C/c1ccc(O)c(O)c1)O[C@H]1CCCC[C@@H]1OC(=O)/C=C/c1ccc(O)c(O)c1`, the GI50 in the test on A498 is 22.3 µM (inactive); in the test on ACHN, 7.98 µM (inactive); in the test on COLO 205 it was 22.9 µM (inactive); with IGROV-1, 4.9 µM (inactive); with LOX IMVI, 3.45 µM (inactive); in the test on M14 it was 15.9 µM (inactive). Also, the GI50 in the test on MDA-MB-231 was 20.5 µM (inactive); in the test on MOLT-4, 3.85 µM (inactive); in the test with Malme-3M it was 15.7 µM (inactive); in the test with NCI-H522, 5.22 µM (inactive); in the test with OVCAR-3, 5.51 µM (inactive); with OVCAR-4 it was 17.9 µM (inactive). The GI50 with RXF 393 was 10.5 µM (inactive); with SF-268 it was 11.6 µM (inactive); in the test with SK-MEL-5, 6.04 µM (inactive); in the test with SN12C, 13.6 µM (inactive); in the test with SR, 5.87 µM (inactive); in the test with UACC-257 it was 15.6 µM (inactive). Also, in the test with UO-31, the GI50 was 7.03 µM (inactive).

In the case of `CCNc1ncnc2sc(SCc3ccccc3)nc12`, the GI50 with A498 is 61.9 µM (inactive); with ACHN it was 70.6 µM (inactive); in the test on COLO 205 it was 36.1 µM (inactive); in the test with IGROV-1 it was > 100 µM (inactive); with LOX IMVI, 95.9 µM (inactive); with M14 it was > 100 µM (inactive). Moreover, the GI50 was > 100 µM (inactive) in the test on MDA-MB-231; 25.9 µM (inactive) in the test on MOLT-4; > 100 µM (inactive) in the test with Malme-3M; 62.2 µM (inactive) in the test on NCI-H522; > 100 µM (inactive) in the test on OVCAR-3; > 100 µM (inactive) with OVCAR-4. Moreover, the GI50 is > 100 µM (inactive) in the test with RXF 393; > 100 µM (inactive) in the test with SF-268; 25.6 µM (inactive) in the test with SK-MEL-5; > 100 µM (inactive) in the test on SN12C; 33.8 µM (inactive) with SR; 79.1 µM (inactive) in the test on UACC-257. In addition, the GI50 in the test on UO-31 was 36.8 µM (inactive).

For `CCC(C)C1=C(O)[N+]2([O-])Oc3ccc(-c4c(O)c(O)c(-c5ccc(O)cc5)c(OC(C)=O)c4OC(C)=O)cc3OC2(C(C)CC)C(=O)N1O` (stereo not given), the GI50 is > 50 µM (inactive) in the test with A498; > 50 µM (inactive) in the test on ACHN; > 50 µM (inactive) with COLO 205; > 50 µM (inactive) in the test on IGROV-1; 17.6 µM (inactive) in the test with LOX IMVI; > 50 µM (inactive) in the test with M14. Also, the GI50 in the test with MDA-MB-231 is > 50 µM (inactive); in the test on MOLT-4, 43.8 µM (inactive); with Malme-3M, > 50 µM (inactive); with NCI-H522, 23.5 µM (inactive); with OVCAR-3 it was > 50 µM (inactive); in the test on OVCAR-4, > 50 µM (inactive). Also, the GI50 in the test with RXF 393, in the test on SF-268, in the test on SK-MEL-5, with SN12C, with SR and in the test with UACC-257 was > 50 µM (inactive) each time. Moreover, in the test on UO-31, the GI50 is > 50 µM (inactive).

Take `CCOC(=O)C1=CN/C(=C(/C)C(=O)OC)SC1C(=O)OCC` (stereo not given): the GI50 with A498, in the test with ACHN, in the test on COLO 205, in the test with IGROV-1, with LOX IMVI and in the test with M14 was > 100 µM (inactive) in each case. Also, the GI50 in the test with MDA-MB-231 was > 100 µM (inactive); in the test with MOLT-4, 25.6 µM (inactive); in the test on Malme-3M, > 100 µM (inactive); in the test on NCI-H522, > 76.7 µM (inactive); with OVCAR-3, > 100 µM (inactive); with OVCAR-4, > 100 µM (inactive). In addition, the GI50 is > 100 µM (inactive) in the test with RXF 393; > 100 µM (inactive) in the test on SF-268; 58.3 µM (inactive) with SK-MEL-5; > 100 µM (inactive) with SN12C; 47.8 µM (inactive) with SR; > 100 µM (inactive) in the test on UACC-257. The GI50 in the test on UO-31 was > 78.5 µM (inactive).

`CC1(C)CCC[C@@]2(C)C1CC[C@@]1(CO1)[C@@H]2/C=C\C(C=O)CC=O` (stereo not given in full): the GI50 was > 100 µM (inactive) in the test with A498; > 100 µM (inactive) in the test on ACHN; > 91.8 µM (inactive) in the test on COLO 205; > 100 µM (inactive) in the test on IGROV-1; > 67.1 µM (inactive) with LOX IMVI; > 100 µM (inactive) in the test on M14. For the same compound, the GI50 with MDA-MB-231 was > 100 µM (inactive); in the test on MOLT-4, 21.5 µM (inactive); in the test on Malme-3M, > 100 µM (inactive); with NCI-H522 it was 42.4 µM (inactive); with OVCAR-3 it was > 100 µM (inactive); in the test on OVCAR-4 it was > 100 µM (inactive). Further, the GI50 with RXF 393 was 99.8 µM (inactive); in the test with SF-268, > 100 µM (inactive); in the test on SK-MEL-5, > 100 µM (inactive); with SN12C, > 68.1 µM (inactive); in the test on SR, 37.6 µM (inactive); in the test on UACC-257, > 100 µM (inactive). Also, the GI50 in the test with UO-31 was > 94.8 µM (inactive).

Turning to `Fc1c(F)c(C(F)(F)F)c(F)c(F)c1N/N=C\c1c[nH]c2ccccc12`, the GI50 is 3.44 µM (inactive) in the test with A498; 6.64 µM (inactive) in the test on ACHN; 1.28 µM (inactive) in the test with COLO 205; 1.26 µM (inactive) in the test on IGROV-1; 3.3 µM (inactive) with LOX IMVI; 1.62 µM (inactive) with M14. The GI50 with MDA-MB-231 is 3.03 µM (inactive); in the test with MOLT-4 it was 2.19 µM (inactive); in the test with Malme-3M, 3.92 µM (inactive); in the test with NCI-H522 it was 1.74 µM (inactive); in the test on OVCAR-3, 1.87 µM (inactive); in the test with OVCAR-4, 2.44 µM (inactive). Besides, the GI50 with RXF 393 was 2 µM (inactive); in the test on SF-268, 5.24 µM (inactive); in the test with SK-MEL-5, 1.82 µM (inactive); in the test on SN12C, 3.13 µM (inactive); in the test on SR, 2.75 µM (inactive); in the test with UACC-257, 3.52 µM (inactive). For the same compound, the GI50 in the test with UO-31 is 1.16 µM (inactive).
